Test results taken from paper PMC12446476 (Nature Communications, 2025).
Several values for one entry are separate records, joined by “and”; a condition that tells them apart may be missing. Equal entries are not always repeated.

System: N. gonorrhoeae
Test: N. gonorrhoeae murine vaginal infection model, efficacy
Format: in vivo, mouse
Description: The N. gonorrhoeae female mouse vaginal model[45] was performed in accordance with the Guide for Care and Use of Laboratory Animals[75]. Animal rooms were maintained at a temperature range of 20–24 °C and humidity between 30% and 70%, with 12 h light/dark cycles. Ovariectomized BALB/c female mice (5–6 weeks, BioLASCO Taiwan Co., Ltd.) were treated with estradiol (0.23 mg/mouse) two days before infection and on the day of infection. Ovariectomized mice were used to avoid staging mice before treating them with estradiol. Beginning two days prior to infection and maintained until the end of the study, animals were treated twice daily with streptomycin (1.2 mg/mouse) and vancomycin (0.6 mg/mouse) each via intraperitoneal (IP) injection and received trimethoprim sulfate in the drinking water (0.4 mg/mL) to control vaginal microflora. Animals were anesthetised with pentobarbital (80 mg/kg), the vagina was rinsed with 50 mM HEPES (pH 7.4), and then inoculated with N. gonorrhoeae in pre-warmed PBS (0.02 mL/mouse containing ~1 × 10^5 CFU).
Control groups received either a single IP injection of ceftriaxone or 5% dextrose (vehicle) twice daily. Animals were sacrificed via CO2 asphyxiation at either 2 h (baseline), 26 and/or 50 h post-infection. Vaginal lavage was performed twice with 200 µL GC broth containing 0.05% saponin to recover bacteria. Bacterial burden in the lavage fluids was determined by performing 10-fold serial dilutions and plating on chocolate agar plates. Four strains were assessed using the model; ATCC 700825 is naturally streptomycin-resistant, whereas AR Bank0179-15, AR Bank0181-17 and WHO X-07 are derivatives of AR Bank0179, AR Bank0181 and WHO X, respectively, that were engineered for streptomycin resistance for use in the model.

[1] = Data 4, N. gonorrhoeae WHO X-07, ovariectomized BALB/c, 5 mg/kg IP, QD, 24h, individual animals, 5 mg/kg
[2] = Data 4, N. gonorrhoeae WHO X-07, ovariectomized BALB/c, 333.33 mg/kg IP, TID, 24h, individual animals
[3] = Data 4, N. gonorrhoeae WHO X-07, ovariectomized BALB/c, 333.33 mg/kg IP, TID, 48h, individual animals, 333.33 mg/kg
[4] = N. gonorrhoeae AR Bank0179-15, vaginal lavage, individual mice, Ceftriaxone 0.5 mg/kg IP, QD, 24h
[5] = N. gonorrhoeae AR Bank0179-15, vaginal lavage, individual mice, Ceftriaxone 5 mg/kg IP, QD, 24h
[6] = N. gonorrhoeae AR Bank0179-15, vaginal lavage, individual mice, Ceftriaxone 5 mg/kg IP, QD, 48h
[7] = N. gonorrhoeae AR Bank0181-17, vaginal lavage, individual mice, Ceftriaxone 0.5 mg/kg IP, QD, 24h
[8] = N. gonorrhoeae AR Bank0181-17, vaginal lavage, individual mice, Ceftriaxone 5 mg/kg IP, QD, 24h
[9] = N. gonorrhoeae AR Bank0181-17, vaginal lavage, individual mice, Ceftriaxone 5 mg/kg IP, QD, 48h
[10] = N. gonorrhoeae ATCC 700825, vaginal lavage, individual mice, Ceftriaxone 1 mg/kg IP, QD, 24h
[11] = N. gonorrhoeae ATCC 700825, vaginal lavage, individual mice, Ceftriaxone 5 mg/kg IP, QD, 24h
[12] = N. gonorrhoeae ATCC 700825, vaginal lavage, individual mice, Ceftriaxone 5 mg/kg IP, QD, 48h

## CO/N=C(\C(=O)N[C@@H]1C(=O)N2C(C(=O)O)=C(CSc3nc(=O)c(=O)[nH]n3C)CS[C@H]12)c1csc(N)n1 [Ceftriaxone, reference compound]
AR Bank0179-15, 0.5 µg/mL ceftriaxone, 24h
  Mean Diff. 0h vs. treatment, log10 CFU: 3.018
AR Bank0179-15, 5 µg/mL ceftriaxone, 24h
  Mean Diff. 0h vs. treatment, log10 CFU: 3.186
AR Bank0179-15, 5 µg/mL ceftriaxone, 48h
  Mean Diff. 0h vs. treatment, log10 CFU: 3.09
AR Bank0181-17, 0.5 µg/mL ceftriaxone, 24h
  Mean Diff. 0h vs. treatment, log10 CFU: 0.924
AR Bank0181-17, 5 µg/mL ceftriaxone, 24h
  Mean Diff. 0h vs. treatment, log10 CFU: 3.56
AR Bank0181-17, 5 µg/mL ceftriaxone, 48h
  Mean Diff. 0h vs. treatment, log10 CFU: 3.56
ATCC 700825, AR Bank0179-15, AR Bank0181-17
  efficacy against ceftriaxone-susceptible strains: effective
ATCC 700825, 1 µg/mL ceftriaxone, 24h
  Mean Diff. 0h vs. treatment, log10 CFU: 2.882
ATCC 700825, 5 µg/mL ceftriaxone, 24h
  Mean Diff. 0h vs. treatment, log10 CFU: 3.022
ATCC 700825, 5 µg/mL ceftriaxone, 48h
  Mean Diff. 0h vs. treatment, log10 CFU: 3.082
[1]
  CFU/mL lavage fluid: 1450000 CFU/mL lavage fluid and 400000 CFU/mL lavage fluid and 1290000 CFU/mL lavage fluid and 480000 CFU/mL lavage fluid and 620000 CFU/mL lavage fluid
  Log10(CFU/mL lavage fluid): 6.16 Log10(CFU/mL lavage fluid) and 5.60 Log10(CFU/mL lavage fluid) and 6.11 Log10(CFU/mL lavage fluid) and 5.68 Log10(CFU/mL lavage fluid) and 5.79 Log10(CFU/mL lavage fluid)
[2]
  CFU/mL lavage fluid: <5.00E+00 CFU/mL lavage fluid
  Log10(CFU/mL lavage fluid): <0.70 Log10(CFU/mL lavage fluid)
[3]
  CFU/mL lavage fluid: 35 CFU/mL lavage fluid and <5.00E+00 CFU/mL lavage fluid
  Log10(CFU/mL lavage fluid): 1.54 Log10(CFU/mL lavage fluid) and <0.70 Log10(CFU/mL lavage fluid)
[4]
  CFU/mL lavage fluid: 5 CFU/mL and <5 CFU/mL and 35 CFU/mL
  Log10(CFU/mL lavage fluid): 0.7 Log10(CFU/mL lavage fluid) and <0.70 Log10(CFU/mL lavage fluid) and 1.54 Log10(CFU/mL lavage fluid)
[5]
  CFU/mL lavage fluid: <5 CFU/mL
  Log10(CFU/mL lavage fluid): <0.70 Log10(CFU/mL lavage fluid)
[6]
  CFU/mL lavage fluid: 5 CFU/mL and <5 CFU/mL and 15 CFU/mL
  Log10(CFU/mL lavage fluid): 0.7 Log10(CFU/mL lavage fluid) and <0.70 Log10(CFU/mL lavage fluid) and 1.18 Log10(CFU/mL lavage fluid)
[7]
  CFU/mL lavage fluid: 255 CFU/mL and 195 CFU/mL and 3900 CFU/mL and 37000 CFU/mL and 6600 CFU/mL
  Log10(CFU/mL lavage fluid): 2.41 Log10(CFU/mL lavage fluid) and 2.29 Log10(CFU/mL lavage fluid) and 3.59 Log10(CFU/mL lavage fluid) and 4.57 Log10(CFU/mL lavage fluid) and 3.82 Log10(CFU/mL lavage fluid)
[8]
  CFU/mL lavage fluid: <5 CFU/mL
  Log10(CFU/mL lavage fluid): <0.70 Log10(CFU/mL lavage fluid)
[9]
  CFU/mL lavage fluid: <5 CFU/mL
  Log10(CFU/mL lavage fluid): <0.70 Log10(CFU/mL lavage fluid)
[10]
  CFU/mL lavage fluid: 50 CFU/mL and 5 CFU/mL and <5 CFU/mL
  Log10(CFU/mL lavage fluid): 1.7 Log10(CFU/mL lavage fluid) and 0.7 Log10(CFU/mL lavage fluid) and <0.70 Log10(CFU/mL lavage fluid)
[11]
  CFU/mL lavage fluid: <5 CFU/mL and 10 CFU/mL
  Log10(CFU/mL lavage fluid): <0.70 Log10(CFU/mL lavage fluid) and 1 Log10(CFU/mL lavage fluid)
[12]
  CFU/mL lavage fluid: <5 CFU/mL
  Log10(CFU/mL lavage fluid): <0.70 Log10(CFU/mL lavage fluid)
WHO X-07, 5 µg/mL ceftriaxone, 24h
  Mean Diff. 0h vs. treatment, log10 CFU: -1.846
WHO X-07, 1000 µg/mL ceftriaxone, 24h
  Mean Diff. 0h vs. treatment, log10 CFU: 3.322
WHO X-07, 1000 µg/mL ceftriaxone, 48h
  Mean Diff. 0h vs. treatment, log10 CFU: 3.154
At doses equivalent to those effective against susceptible strains
  efficacy against ceftriaxone-resistant strain WHO X-07: ineffective
Dose with simulated fT > MIC of 2 h
  increase in log10CFU/mL at 24 h: 1.9 log10CFU/mL
Doses with simulated fT > MIC of 12 to 18 h
  reduction in log10CFU/mL at 24 h: 2.0 log10CFU/mL
Doses with simulated fT > MIC of >24 h
  reduction in log10CFU/mL at 24 h: 3.3 log10CFU/mL
Doses with simulated fT > MIC of ≥22 to 24 h
  reduction in log10CFU/mL at 24 h: 2.9 log10CFU/mL
